Holding throughout (type): in vivo
The test system of one data set is mice. Kind of data set: Acute toxicity in mice. The conditions noted are these: single administration. The text has this: (§1) Acute toxicity in mice by the sub-cutaneous and oral routes and in rats by the oral route was investigated by determination of the death rate following a single administration of increasing dosages.
(§2) Symbol > means that the LD50 is not attained at the dosage indicated.

A further data set relates to rats. Kind of data set: Acute toxicity in rats. The conditions noted are these: single administration.
Text: as §1, §2

The nature of a further data set: Acute toxicity in mice. The conditions noted are these: mouse, in vivo, single administration.
Text: as §1, §2

The nature of the next data set: Acute toxicity in rats. Conditions: rat, in vivo, po, single administration.
Text: as §1, §2

In data set [1] the test system is bronchospasm induced by histamine injection in guinea-pigs. The data set can be described thus: Anti-histaminic: bronchospasm induced by histamine injection in guinea-pigs. The conditions noted are these: Cavia porcellus, oral, read-out: oral AD50, anti-histaminic activity. The procedure:
This activity was determined according to the technique of the bronchospasm induced by histamine injection in guinea-pigs.

Data set [2] has as its system cough induced by electric stimulation of the laryngeal nerve in cats. Kind of data set: Anti-tussive: cough induced by electric stimulation of the laryngeal nerve. The text has this:
6. Anti-tussive activity against cough induced by electric stimulation of the laryngeal nerve in cats.

In data set [3] the test system is carrage enin-induced edema in rats. The data set can be described thus: Anti-inflammatory: carrageenin-induced edema in rats. The conditions noted are these: oral route. The procedure:
The technique used was that of the carrage enin-induced edema in rats (oral route). The dosage which inhibits this edema by a factor of 50% was evaluated by interpolation.
On the technique in general: In the carrageenan paw model, swelling and tenderness develop within hours.

The subject of data set [4] is aggressiveness subsequent to extended isolation in mice. Kind of data set: Anti-aggressive: aggressiveness subsequent to extended isolation, mice. Conditions: Mus musculus, oral, read-out: Oral AD50, isolated mice. The procedure: c. aggressiveness subsequent to extended isolation, in mice,
(§3) In all cases, the AD50 values were determined by the oral route.

Data set [5] concerns aggressiveness subsequent to electric shocks in mice. Kind of data set: Anti-aggressive: aggressiveness subsequent to electric shocks, mice. The conditions noted are these: Mus musculus, oral, read-out: Oral AD50, electric shock in mice. On the procedure:
(§4) a. aggressiveness subsequent to electric shocks in mice and rats,
as §3

Data set [6] has as its system aggressiveness subsequent to apomorphine injection in rats. Kind of data set: Anti-aggressive: aggressiveness subsequent to apomorphine injection, rats. The conditions noted are these: Rattus norvegicus, oral, apomorphine injection 1 mg/kg, read-out: Oral AD50, apomorphine, in rats. The procedure:
b. aggressiveness subsequent to apomorphine injection (1 mg/kg, in vivo) in rats,
as §3

For data set [7], the system named is aggressiveness subsequent to electric shocks in rats. Kind of data set: Anti-aggressive: aggressiveness subsequent to electric shocks, rats. The conditions noted are these: Rattus norvegicus, oral, read-out: Oral AD50, electric shock in rats. The procedure:
as §4, §3

Where [8] appears, read: po, read-out: LD50, oral route, mice.
Where [9] appears, read: sc, read-out: LD50, s.c. route, mice.

`Cn1c(=O)c2c(nc3n2CCN3CCN2CCN(c3cccc(Cl)c3)CC2)n(C)c1=O` [Compound 31]: the “LD50, oral route, mice” value in the data set with mice (oral route) is 150 mg/kg. The “LD50, s.c. route, mice” value in the data set with mice (s.c. route) is over 300 mg/kg. The “LD50, oral route, rats” value in the data set on rats is given as over 100 mg/kg.

Turning to `Cn1c(=O)c2c(nc3n2CCN3CCN2CCN(c3cc(Cl)cc(Cl)c3)CC2)n(C)c1=O` [Compound 15], the values for the LD50 in “Acute toxicity in mice” (setting [8]), in the data set “Acute toxicity in mice” (setting [9]) and in “Acute toxicity in rats” were over 300 mg/kg, over 300 mg/kg and over 100 mg/kg, respectively.

Turning to `Cc1ccc(N2CCN(CCN3CCn4c3nc3c4c(=O)n(C)c(=O)n3C)CC2)cc1C` [Compound 2], the figures for the LD50 in “Acute toxicity in mice” (setting [8]), in the data set “Acute toxicity in mice” (setting [9]) and in “Acute toxicity in rats” were over 300 mg/kg, over 300 mg/kg and over 100 mg/kg, respectively.

For `Cn1c(=O)c2c(nc3n2CCN3CCN2CCN(c3cccc(Cl)c3)C(COc3ccccc3)C2)n(C)c1=O` (centres unmarked) [Compound 25], the LD50 was over 300 mg/kg in the data set “Acute toxicity in mice” (setting [8]), over 300 mg/kg in “Acute toxicity in mice” (setting [9]) and over 100 mg/kg in the data set “Acute toxicity in rats”.

Regarding `Cn1c(=O)c2c(nc3n2CCN3CCN2CCN(c3cccc(Cl)c3Cl)CC2)n(C)c1=O` [Compound 13], the LD50 is over 300 mg/kg in the data set “Acute toxicity in mice” (setting [8]), over 300 mg/kg in “Acute toxicity in mice” (setting [9]) and over 100 mg/kg in “Acute toxicity in rats”.

On to `CC1CN(CCN2CCn3c2nc2c3c(=O)n(C)c(=O)n2C)CCN1c1ccc(Cl)cc1` (centres unmarked) [Compound 22], for which the LD50 in the data set “Acute toxicity in mice” (setting [8]) was over 300 mg/kg; in “Acute toxicity in mice” (setting [9]), over 300 mg/kg; in the data set “Acute toxicity in rats”, over 100 mg/kg.

Take `Cn1c(=O)c2c(nc3n2CCN3CCCCCCN2CCN(c3cccc(Cl)c3)CC2)n(C)c1=O` [Compound 29]: the LD50 was over 300 mg/kg in the data set “Acute toxicity in mice” (setting [8]), over 300 mg/kg in “Acute toxicity in mice” (setting [9]) and over 100 mg/kg in “Acute toxicity in rats”.

For `Cn1c(=O)c2c(nc3n2CCN3CCN2CCN(c3cccc(I)c3)CC2)n(C)c1=O` [Compound 9], the 50% lethal dose (LD50) was over 300 mg/kg in the data set “Acute toxicity in mice” (setting [8]), over 300 mg/kg in “Acute toxicity in mice” (setting [9]) and over 100 mg/kg in “Acute toxicity in rats”.

For `Cn1c(=O)c2c(nc3n2CCN3CCN2CCN(c3ccc(Cl)cc3)CC2)n(C)c1=O` [Compound 12], the values for the LD50 in “Acute toxicity in mice” (setting [8]), in “Acute toxicity in mice” (setting [9]) and in the data set “Acute toxicity in rats” were 120 mg/kg, over 300 mg/kg and over 100 mg/kg, respectively. In addition, the ED50 in [1] was determined as 1.5 mg/kg. In data set [2], the “anti-tussive activity (in words)” value is “most active compound investigated”. Further, the “anti-inflammatory activity (in words)” value in data set [3] is given as “the more active, the activities being substantially equivalent to those of phenyl butazone”.

For `Cn1c(=O)c2c(nc3n2CCN3CCN2CCN(c3cccc(F)c3)CC2)n(C)c1=O` [Compound 6], the 50% lethal dose (LD50) in the data set “Acute toxicity in mice” (setting [8]) is over 300 mg/kg; in the data set “Acute toxicity in mice” (setting [9]) it was over 300 mg/kg; in “Acute toxicity in rats”, over 100 mg/kg.

Regarding `Cn1c(=O)c2c(nc3n2CCN3CCN2CCN(c3ccc(Cl)c(Cl)c3)CC2)n(C)c1=O` [Compound 14], the 50% lethal dose (LD50) in “Acute toxicity in mice” (setting [8]) was over 300 mg/kg; in the data set “Acute toxicity in mice” (setting [9]) it was over 300 mg/kg; in “Acute toxicity in rats” it was over 100 mg/kg.

`Cn1c(=O)c2c(nc3n2CCN3CCCN2CCN(c3cccc(Cl)c3)CC2)n(C)c1=O` [Compound 17]: the values for the 50% lethal dose (LD50) in “Acute toxicity in mice” (setting [8]), in the data set “Acute toxicity in mice” (setting [9]) and in “Acute toxicity in rats” were over 300 mg/kg, over 300 mg/kg and over 100 mg/kg, respectively.

As for `Cn1c(=O)c2c(nc3n2CCN3CCN2CCN(c3cccc(C(F)(F)F)c3)CC2)n(C)c1=O` [Compound 5], the LD50 was over 300 mg/kg in the data set “Acute toxicity in mice” (setting [8]), over 300 mg/kg in the data set “Acute toxicity in mice” (setting [9]) and over 100 mg/kg in the data set “Acute toxicity in rats”.

On to `Cn1c(=O)c2c(nc3n2CCN3CCN2CCN(c3cccc(Br)c3)CC2)n(C)c1=O` [Compound 8], for which the 50% lethal dose (LD50) in “Acute toxicity in mice” (setting [8]) was over 300 mg/kg; in the data set “Acute toxicity in mice” (setting [9]), over 300 mg/kg; in the data set “Acute toxicity in rats”, over 100 mg/kg.

Consider `CCC1CN(CCN2CCn3c2nc2c3c(=O)n(C)c(=O)n2C)CCN1c1cccc(Cl)c1` (centres unmarked) [Compound 24], for which the LD50 in “Acute toxicity in mice” (setting [8]) was 300 mg/kg; in the data set “Acute toxicity in mice” (setting [9]) it was over 300 mg/kg; in “Acute toxicity in rats”, over 100 mg/kg.

Take `Cn1c(=O)c2c(nc3n2CCCCN3CCCN2CCN(c3cccc(Cl)c3)CC2)n(C)c1=O` [Compound 27]: the LD50 in “Acute toxicity in mice” (setting [8]) is over 300 mg/kg; in “Acute toxicity in mice” (setting [9]), over 300 mg/kg; in “Acute toxicity in rats” it was over 100 mg/kg.

On to `Cn1c(=O)c2c(nc3n2CCCN3CCCCCCN2CCN(c3cccc(Cl)c3)CC2)n(C)c1=O` [Compound 30], for which the 50% lethal dose (LD50) was over 300 mg/kg in the data set “Acute toxicity in mice” (setting [8]), over 300 mg/kg in “Acute toxicity in mice” (setting [9]) and over 100 mg/kg in “Acute toxicity in rats”.

For the compound `Cc1cccc(N2CCN(CCN3CCn4c3nc3c4c(=O)n(C)c(=O)n3C)CC2)c1` [Compound 1], the figures for the 50% lethal dose (LD50) in “Acute toxicity in mice” (setting [8]), in “Acute toxicity in mice” (setting [9]) and in “Acute toxicity in rats” were over 300 mg/kg, over 300 mg/kg and over 100 mg/kg, respectively.

In the case of `CC(CN1CCn2c1nc1c2c(=O)n(C)c(=O)n1C)N1CCN(c2cccc(Cl)c2)CC1` (centres unmarked) [Compound 16], the median lethal dose (LD50) is over 300 mg/kg in “Acute toxicity in mice” (setting [8]), over 300 mg/kg in the data set “Acute toxicity in mice” (setting [9]) and over 100 mg/kg in the data set “Acute toxicity in rats”.

For the compound `Cn1c(=O)c2c(nc3n2CCCN3CCCN2CCN(c3cccc(Cl)c3)CC2)n(C)c1=O` [Compound 20], the LD50 in “Acute toxicity in mice” (setting [8]) was over 300 mg/kg; in “Acute toxicity in mice” (setting [9]), over 300 mg/kg; in the data set “Acute toxicity in rats”, over 100 mg/kg. Moreover, the “anti-inflammatory activity (in words)” value in data set [3] is on record as “the more active, the activities being substantially equivalent to those of phenyl butazone”.

As for `CC1CN(CCN2CCn3c2nc2c3c(=O)n(C)c(=O)n2C)CCN1c1cccc(Cl)c1` (centres unmarked) [Compound 21], the LD50 in “Acute toxicity in mice” (setting [8]) was over 300 mg/kg; in “Acute toxicity in mice” (setting [9]), over 300 mg/kg; in “Acute toxicity in rats”, over 100 mg/kg.

On to `Cn1c(=O)c2c(nc3n2CCN3CCN2CCN(c3ccccc3Cl)CC2)n(C)c1=O` [Compound 10], for which the figures for the LD50 in “Acute toxicity in mice” (setting [8]), in the data set “Acute toxicity in mice” (setting [9]) and in “Acute toxicity in rats” were over 300 mg/kg, over 300 mg/kg and over 100 mg/kg, respectively.

Take `Cn1c(=O)c2c(nc3n2CCN3CCN2CCN(c3ccc(F)cc3)CC2)n(C)c1=O` [Compound 7]: the 50% lethal dose (LD50) in “Acute toxicity in mice” (setting [8]) is over 300 mg/kg; in the data set “Acute toxicity in mice” (setting [9]), over 300 mg/kg; in “Acute toxicity in rats” it was over 100 mg/kg.

Take `CC(CN1CCCn2c1nc1c2c(=O)n(C)c(=O)n1C)N1CCN(c2cccc(Cl)c2)CC1` (centres unmarked) [Compound 19]: the LD50 in the data set “Acute toxicity in mice” (setting [8]) is over 300 mg/kg; in the data set “Acute toxicity in mice” (setting [9]), over 300 mg/kg; in the data set “Acute toxicity in rats”, over 100 mg/kg.

As to `COc1ccc(N2CCN(CCN3CCn4c3nc3c4c(=O)n(C)c(=O)n3C)CC2)cc1` [Compound 4], the LD50 in “Acute toxicity in mice” (setting [8]) was over 300 mg/kg; in the data set “Acute toxicity in mice” (setting [9]) it was over 300 mg/kg; in “Acute toxicity in rats” it was over 100 mg/kg.

Turning to `COc1cccc(N2CCN(CCN3CCn4c3nc3c4c(=O)n(C)c(=O)n3C)CC2)c1` [Compound 3], the results for the median lethal dose (LD50) in “Acute toxicity in mice” (setting [8]), in “Acute toxicity in mice” (setting [9]) and in “Acute toxicity in rats” were over 300 mg/kg, over 300 mg/kg and over 100 mg/kg, respectively. Besides, the ED50 in [4] worked out at 25 mg/kg; in data set [5] it was 30 mg/kg; in data set [6] it was 180 mg/kg; in [7] it was 100 mg/kg.

With `Cn1c(=O)c2c(nc3n2CCCCN3CCN2CCN(c3cccc(Cl)c3)CC2)n(C)c1=O` [Compound 26], the median lethal dose (LD50) in the data set “Acute toxicity in mice” (setting [8]) is over 300 mg/kg; in the data set “Acute toxicity in mice” (setting [9]), over 300 mg/kg; in the data set “Acute toxicity in rats” it was over 100 mg/kg.

`Cn1c(=O)c2c(nc3n2CCCN3CCCN2CCN(c3ccc(Cl)cc3)CC2)n(C)c1=O` [Compound 28]: the figures for the LD50 in the data set “Acute toxicity in mice” (setting [8]), in “Acute toxicity in mice” (setting [9]) and in the data set “Acute toxicity in rats” were over 300 mg/kg, over 300 mg/kg and over 100 mg/kg, respectively.

In general, LD50 refers to the dose expected to kill half of the subjects tested.

The record behind these values is patent publication US4073908A, “8-Amino-theophylline derivatives and therapeutic applications thereof” (Laboratoire le Brun S.A., priority 1975, dated 1978).
